In US10485772B2, “Compositions for modulating cancer stem cells and uses therefor” (University of Canberra, priority 2014, dated 2019):

Tested on: CD44^high/CD24^low CSC-like subpopulation of PMA-stimulated MCF-7 cells (MCF-IM model)
Assay: FACS analysis of CD44high/CD24low CSC-like subpopulation in MCF-IM model
Assay type: cell-based, human
Conditions: MCF-IM model; for CD44 high CD24 low-CSC-like subpopulation by FACS: bisindolylmaleimide-I 100 nm and 1 μM prior to PMA for 60 hrs
Procedure: Cells from each well/flask were harvested by means of trypsin treatment followed by two washes with PBS. Washed cells then re-suspended in an antibody cocktail consisting anti-CD44-APC, anti-CD24-PE antibodies (details in Table 5) and Hoechst 33258 dye (final dilution of 1:1000) (Invitrogen, Carlsbad, Calif.) in 1% FCS-PBS solution. Cells re-suspended in antibody cocktail were incubated for 20 minutes at 4° C. Cells were next washed twice with PBS and re-suspended in 1% FCS-PBS solution (volume based on cell number) and kept on ice until analyzed by FACS. Forward scatter (FSC) and side scatter parameters were selected with FITC fluorochrome excited by 488 nm argonion laser, PE fluorochrome excited by 488 nm and Hoechst fluorochrome excited by 350 nm helium-cadmium UV laser.
Flow Cytometry data was produced using either BD FACS LSR Flow Cytometer (Becton Dickinson Biosciences) or BD FACS Aria™ II Flow Cytometer (Becton Dickinson Biosciences) and analyzed using the data acquisition software CellQuest Pro (Becton Dickinson Biosciences) and FlowJo (Tree Star Inc., Ashland, Oreg.) software at the MCRF facility, JCSMR, ANU, Canberra, Australia. Single colour controls were used to set compensation parameters. Isotype controls were used for all corresponding primary antibodies in each experiment.
The FACS gating strategy used in this thesis is adopted and modified from the pioneer breast cancer stem cell publications (Al-Hajj et al., 2003) which sorted cells based on the CD44^high and CD24^low expression. […] To confirm that anti-CD44-APC and anti-CD24-PE antibodies were specific, isotype control antibodies were used. The isotype (negative controls) used for anti-CD24-PE was PE Mouse-Anti-human IgG2aK and for anti-CD44-APC was APC-Mouse-Anti-human IgG2bK. First, all the cells were stained with Hoechst 33258 to monitor cell viability. In addition cells were stained with varying concentrations of either APC or PE isotypes controls.
The adherent human mammary adenocarcinoma MCF-7 and MDA-MB-231 cells were cultured in low glucose DMEM (Gibco) and both supplemented with 10% FCS, 2 mM L-glutamine and 0.1% PSN antibiotics. Cells were stimulated with 0.65 ng/ml of phorbol 12-myristate 13-acetate (PMA) (Sigma-Aldrich) or 20 ng/ml of TGF-β (R&D systems) for the times indicated. For Bisindolylmaleimide-I (Calbiochem) or PKC-θ peptide inhibitor (Calbiochem) studies, cells were pre-treated with 1 μM or 30 μM of inhibitor respectively for 1 h prior to stimulation in MCF-7 cells. In case of MDA-MB-231, cells were treated with 4 μM or 30 μM Bisindolylmaleimide-I or PKC-θ peptide inhibitor respectively.
To separate CSC from non-CSC (NCSC), florescence activated cell sorting (FACS) was performed on single-cell suspensions that were stained with anti-CD44-APC (559942, BD Biosciences) and anti-CD24-PE antibodies (555428, BD Biosciences) along with Hoechst 33258 to monitor cell viability. As used throughout this work, CSC are defined by minority CD44^high/CD24^low, whereas NCSC are defined by rest of the cell populations.
The adherent human mammary adenocarcinoma cell lines MCF-7 were cultured in low glucose DMEM (Gibco) and supplemented with 10% FCS, 2 mM L-glutamine, and 0.1% PSN antibiotics. Cells were stimulated with 0.65 ng/ml of phorbol 12-myristate 13-acetate (PMA) (Sigma-Aldrich) for 60 hours. FACS was performed on single-cell suspensions stained with anti-CD44-APC (559942, BD Biosciences) and anti-CD24-PE antibodies (555428, BD Biosciences), along with Hoechst 33258 (561908, BD Biosciences) to monitor cell viability as previously detailed (Zafar et al., Chromatinized PKC-theta directly regulates inducible genes in epithelial to mesenchymal transition and breast cancer stem cells. Molecular and Cellular Biology, 2014, 34:16 2961-2980). […]

Row | Compound | CD44 high CD24 low-CSC-like subpopulation by FACS | CD44 high CD24 low-CSC-like subpopulation by FACS (listed as Broad spectrum PKC pathway inhibitor) | CD44 high CD24 low-CSC-like subpopulation (CSC formation) by FACS (Go6976 1 μM prior to PMA for 60 hrs)
1 | CN(C)CCCn1cc(C2=C(c3c[nH]c4ccccc34)C(=O)NC2=O)c2ccccc21 [bisindolylmaleimide-I] | only very high concentration of bisindolylmaleimide-I but not Go 6976 inhibits CD44 high CD24 low-CSC-like subpopulation | inhibition of EMT and CSC formation | –
2 | Cn1c2ccccc2c2c3c(c4c5ccccc5n(CCC#N)c4c21)CNC3=O [Go6976] | – | – | did not prevent PMA-induced EMT-like morphological changes or CSC formation
